Measurements published in US6486179B2, “Use of protein kinase C inhibitors to enhance the clinical efficacy of oncolytic agents and radiation therapy” (Eli Lilly and Company, priority 1996, dated 2002).

Legend:
protein kinase C = settings: statement in words, cited from earlier work
PKC-β = target: T1, PKC-β (Homo sapiens, UniProt P05771); test: Western blot of PKC-β in bryostatin 1 treated U937 cells; format: cell-based
T1 construct: endogenous in cells; host or cells: U937 human leukemia cells
T1 sequence (P05771 whole entry): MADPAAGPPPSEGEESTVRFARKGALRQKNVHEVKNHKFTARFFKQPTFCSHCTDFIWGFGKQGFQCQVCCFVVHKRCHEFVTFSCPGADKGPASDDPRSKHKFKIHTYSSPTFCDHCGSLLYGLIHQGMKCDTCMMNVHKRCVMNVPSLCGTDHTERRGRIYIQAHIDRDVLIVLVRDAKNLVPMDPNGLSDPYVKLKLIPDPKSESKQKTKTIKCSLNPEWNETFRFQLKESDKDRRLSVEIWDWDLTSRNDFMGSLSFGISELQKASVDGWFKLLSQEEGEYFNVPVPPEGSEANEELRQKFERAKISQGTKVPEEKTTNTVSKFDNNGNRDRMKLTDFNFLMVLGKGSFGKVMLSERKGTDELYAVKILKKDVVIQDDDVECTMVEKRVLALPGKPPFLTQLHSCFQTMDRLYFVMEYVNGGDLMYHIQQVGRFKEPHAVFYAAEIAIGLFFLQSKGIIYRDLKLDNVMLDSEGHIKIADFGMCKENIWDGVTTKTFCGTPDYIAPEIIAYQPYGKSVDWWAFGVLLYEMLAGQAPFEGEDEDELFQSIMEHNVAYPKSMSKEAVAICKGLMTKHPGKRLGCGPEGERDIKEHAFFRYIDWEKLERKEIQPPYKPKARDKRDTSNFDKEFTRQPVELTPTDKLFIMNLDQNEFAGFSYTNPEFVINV
Protocol: Human leukemia cells U937 in the amount of 0.5×10^6 were treated with various amount of bryostatin 1 for 24 hours. Subsequently, the cells were solubilized for preparation of protein samples according to a routine procedure. The protein samples from bryostatin treated cells were then used in Western blot analysis with a protein kinase C-β specific antiserum previously described in Ways et al., Cell Growth & Differentiation 1994, 5: 1195-1203. […] In a repeated experiment, similar results were obtained.

[1] = tested on: Human leukemia cells U937; test: Viability of U937 cells after γ-irradiation (propidium iodide exclusion, FACS); format: cell-based; settings: 3 nM bryostatin 1 for 24 hours, then 500 or 1000 rads; viability 72 hours after irradiation; triplicate
Protocol: Human leukemia cells U937 were treated for 24 hours with either 3 nM bryostatin 1 or the control solution, i.e., the vehicle for bryostatin 1. The cells were then irradiated with either 500 or 1000 rads of γ-irradiation. Seventy-two hours after irradiation, cellular viability was examined using propidium iodide exclusion and quantified by FACS analysis as previously described in Ways et al., Cell Growth & Differentiation 1994, 5: 1195-1203. Viability assays were performed in triplicate. […] Similar results were obtained in several repeated experiments.

Structure (SMILES) | isozyme selectivity (protein kinase C; selective to protein kinase C over other kinases) | protein kinase C inhibition (protein kinase C; no value) | time within which bryostatin treatment caused PKC-β activity to decrease (PKC-β; 1 nM bryostatin) | time within which bryostatin treatment caused PKC-β activity to decrease (PKC-β; 10 nM bryostatin) | γ-irradiation-induced apoptosis [1]
CN(C)C[C@@H]1CCn2cc(c3ccccc32)C2=C(C(=O)NC2=O)c2cn(c3ccccc23)CCO1.Cl [Example 5g, (S)-3,4-[N, N′-1,1′-((2″-ethoxy)-3′″(O)-4′″-(N,N-dimethylamino)-butane)-bis-(3,3′-indolyl)]-1(H)-pyrrole-2,5-dione Hydrochloride Salt] | selective for the beta-1 and beta-2 isozymes | potent protein kinase C inhibitor |  |  | 
CCC/C=C/C=C/C(=O)O[C@H]1/C(=C/C(=O)OC)C[C@H]2C[C@H]([C@@H](C)O)OC(=O)C[C@H](O)C[C@@H]3C[C@H](OC(C)=O)C(C)(C)[C@](O)(C[C@@H]4C/C(=C/C(=O)OC)C[C@H](/C=C/C(C)(C)[C@]1(O)O2)O4)O3 [bryostatin 1] |  |  | ≤ 24 h | ≤ 2 h | enhanced
